From article PMC6272317, “Design, Synthesis and Antitubercular Activity of Certain Nicotinic Acid Hydrazides” (Molecules, 2015)
Values after ≈ are worked out from the molar mass of the structure shown. Like-named read-outs stand apart in the source and are kept apart here.

Assays:
[1] = test system: M. tuberculosis (RCMB 010126); assay: microplate Alamar blue assay (MABA), in vitro antimycobacterial activity; type: cell-based, Mycobacterium tuberculosis; conditions: for Mean of Inhibition %: test concentration not stated; for MIC: visual MIC
[2] = test system: HT-29 colon cancer cell line; assay: SRB cytotoxicity assay, HT-29; conditions: for IC50: Homo sapiens, HT-29, 72 h; for cytotoxicity (in words): HT-29
[3] = test system: A-549 human lung cancer cell line; design: method as in PMID 25499988; conditions: previous study ref 40, cited from earlier work; for IC50: A549, 72 h; for cytotoxicity (in words): A549
[4] = test system: HepG-2 liver cancer cell line; design: method as in PMID 25499988; conditions: previous study ref 40, cited from earlier work; for IC50: HepG2, 72 h; for cytotoxicity (in words): HepG2
[5] = test system: PC-3 prostate cancer cell line; assay: SRB cytotoxicity assay, PC-3; conditions: for IC50: 72 h; for cytotoxicity (in words): PC-3
[6] = test system: MCF-7 breast cancer cell line; design: method as in PMID 25499988; conditions: previous study ref 40, cited from earlier work; for IC50: MCF-7, 72 h; for cytotoxicity (in words): MCF-7
[7] = M. tuberculosis RCMB 010126, MABA
[8] = Mycobacterium tuberculosis, RCMB010126, M. tuberculosis RCMB 010126, MABA, read-out: MIC

SMILES	Mean of Inhibition % [1, 7]	MIC [1, 8]	melting point	other results
Cc1nc(-c2ccccc2)ccc1C(=O)NN [Compound 4a]	42.52 ± 0.63%	25 µg/mL (≈ 110 µM)	–	–
Cc1ccc(-c2ccc(C(=O)NN)c(C)n2)cc1 [Compound 4b]	36.33 ± 0.58%	25 µg/mL (≈ 104 µM)	–	–
Cc1nc(-c2ccc(F)cc2)ccc1C(=O)NN [Compound 4c, 6-(4-fluorophenyl)-2-methylnicotinohydrazide]	NA (No Activity (>100 µg/mL))	> 100 µg/mL	–	antimycobacterial activity (in words) ([1]; M. tuberculosis, MABA): complete loss of activity
Cc1nc(-c2ccc(Cl)cc2)ccc1C(=O)NN [Compound 4d]	12.45 ± 0.58%	50 µg/mL (≈ 191 µM)	–	MIC [1, 7]: 100 µg/mL (≈ 382 µM)
Cc1nc(-c2ccc(Br)cc2)ccc1C(=O)NN [Compound 4e, 6-(4-Bromophenyl)-2-methylnicotinohydrazide]	20.63 ± 0.63%	100 µg/mL (≈ 327 µM)	213 to 215 °C	MIC [1, 7]: 50 µg/mL (≈ 163 µM)
COc1ccc(-c2ccc(C(=O)NN)c(C)n2)cc1 [Compound 4f, 6-(4-Methoxyphenyl)-2-methylnicotinohydrazide]	42.63 ± 0.16%	25 µg/mL (≈ 97.2 µM)	–	–
COc1ccc(-c2ccc(C(=O)NN)c(C)n2)cc1OC [Compound 4g, 6-(3,4-Dimethoxyphenyl)-2-methylnicotinohydrazide]	22.63 ± 0.16%	50 µg/mL (≈ 174 µM)	204 to 205 °C	–
COc1cc(-c2ccc(C(=O)NN)c(C)n2)cc(OC)c1OC [Compound 4h, 2-Methyl-6-(3,4,5-trimethoxyphenyl)nicotinohydrazide]	18.32 ± 0.72%	50 µg/mL (≈ 158 µM)	–	–
Cc1nc(-c2cccs2)ccc1C(=O)NN [Compound 4i]	22.63 ± 0.20%	50 µg/mL (≈ 214 µM)	–	–
Cc1nc(-c2ccc(Br)cc2)ccc1C(=O)NN=Cc1ccccc1 [Compound 7a, N′-Benzylidene-6-(4-bromophenyl)-2-methylnicotinohydrazide]	NA (No Activity (>100 µg/mL))	> 100 µg/mL	270 to 272 °C	–
Cc1nc(-c2ccc(Br)cc2)ccc1C(=O)NN=Cc1ccc(F)cc1 [Compound 7b, 6-(4-Bromophenyl)-N'-(4-fluorobenzylidene)-2-methylnicotinohydrazide]	NA (No Activity (>100 µg/mL))	> 100 µg/mL	252 to 254 °C	–
Cc1nc(-c2ccc(Br)cc2)ccc1C(=O)NN=Cc1ccc(Cl)cc1 [Compound 7c, 6-(4-Bromophenyl)-N'-(4-chlorobenzylidene)-2-methylnicotinohydrazide]	NA (No Activity (>100 µg/mL))	> 100 µg/mL	265 to 267 °C	–
Cc1nc(-c2ccc(Br)cc2)ccc1C(=O)NN=Cc1ccc(Cl)cc1Cl [Compound 7d, 6-(4-Bromophenyl)-N'-(2,4-dichlorobenzylidene)-2-methylnicotinohydrazide]	13.57 ± 0.72%	100 µg/mL (≈ 216 µM)	269 to 271 °C	–
COc1ccc(C=NNC(=O)c2ccc(-c3ccc(Br)cc3)nc2C)cc1 [Compound 7e, 6-(4-Bromophenyl)-N'-(4-methoxybenzylidene)-2-methylnicotinohydrazide]	NA (No Activity (>100 µg/mL))	> 100 µg/mL	251 to 253 °C	–
Cc1nc(-c2ccc(Br)cc2)ccc1C(=O)NN=Cc1ccc2ccccc2c1 [Compound 7f, 6-(4-Bromophenyl)-2-methyl-N'-(naphthalen-2-ylmethylene)nicotinohydrazide]	14.32 ± 0.58%	100 µg/mL (≈ 225 µM)	273 to 275 °C	–
Cc1nc(-c2ccc(F)cc2)ccc1C(=O)N/N=C1\C(=O)Nc2ccccc21 [Compound 8a]	31.44 ± 0.58%	25 µg/mL (≈ 66.8 µM)	–	IC50 [2]: > 200 µM; IC50 [3]: > 200 µM; IC50 [4]: > 200 µM; IC50 [5]: > 200 µM; IC50 [6]: > 200 µM
Cc1nc(-c2ccc(F)cc2)ccc1C(=O)N/N=C1\C(=O)Nc2ccc(Cl)cc21 [Compound 8b]	52.63 ± 0.58%	12.5 µg/mL (≈ 30.6 µM)	–	cytotoxicity (in words) [2]: devoid of apparent cytotoxicity; IC50 [2]: > 200 µM; IC50 [3]: > 200 µM; cytotoxicity (in words) [3]: devoid of apparent cytotoxicity; IC50 [4]: > 200 µM; cytotoxicity (in words) [4]: devoid of apparent cytotoxicity; MIC [1, 7]: 12.5 µg/mL (≈ 30.6 µM); IC50 [5]: > 200 µM; cytotoxicity (in words) [5]: devoid of apparent cytotoxicity; IC50 [6]: > 200 µM; cytotoxicity (in words) [6]: devoid of apparent cytotoxicity
Cc1nc(-c2ccc(F)cc2)ccc1C(=O)N/N=C1\C(=O)Nc2ccc(Br)cc21 [Compound 8c]	77.42 ± 0.93%	6.25 µg/mL (≈ 13.8 µM)	–	cytotoxicity (in words) [2]: devoid of apparent cytotoxicity; IC50 [2]: > 200 µM; IC50 [3]: > 200 µM; cytotoxicity (in words) [3]: devoid of apparent cytotoxicity; IC50 [4]: > 200 µM; cytotoxicity (in words) [4]: devoid of apparent cytotoxicity; IC50 [5]: > 200 µM; cytotoxicity (in words) [5]: devoid of apparent cytotoxicity; IC50 [6]: > 200 µM; cytotoxicity (in words) [6]: devoid of apparent cytotoxicity
COc1cccc2c1C(=O)c1c(O)c3c(c(O)c1C2=O)C[C@@](O)(C(=O)CO)C[C@@H]3O[C@H]1C[C@H](N)[C@H](O)[C@H](C)O1 [Doxorubicin, reference compound]	–	–	–	IC50 [2]: 7.3 ± 1.11 µM; IC50 [3]: 7.6 ± 1.37 µM; IC50 [4]: 6.9 ± 2.05 µM; IC50 [5]: 6.5 ± 1.07 µM; IC50 [6]: 6.1 ± 1.95 µM
NNC(=O)c1ccncc1 [Isoniazide, Isoniazid, reference compound]	–	0.75 µg/mL (≈ 5.47 µM)	–	–
NC(=O)c1cnccn1 [Pyrazinamid, pyrazinamide, reference compound]	93.25 ± 0.63%	3.21 µg/mL (≈ 26.1 µM)	–	–
